Experimental data from PMC9867241, “Antioxidant and Cytotoxic Activity of New Polyphenolic Derivatives of Quinazolin-4(3H)-one: Synthesis and In Vitro Activities Evaluation” (Pharmaceutics, 2022).
In brackets after ≈: the same amount, converted by molar mass.

What was measured:
[1] = DPPH˙ radical scavenging assay
Description: (§1) The stock solutions (1 mg/mL) of the tested compounds and the controls were obtained, by dissolving the substances in dimethyl sulfoxide (DMSO). Using Jasco V-530, an UV-VIS spectrophotometer (Jasco International Co., Ltd., Tokyo, Japan), we performed the colorimetric determinations in low-volume single-use 10 mm width cuvettes.
(§2) The assays were performed in triplicate and the results are presented as averages for each assay.
The DPPH˙ radical scavenging assay is based on the transfer of one hydrogen from the analyzed compound to the violet stable free radical DPPH˙ (2,2-diphenyl-1-picrylhydrazyl), as we convert it into a yellow compound. The absorbance of the reagent mixed with samples presented inversely proportional values to the amount of DPPH˙ neutralized. The absorbance of the reagent was measured at λ = 517 nm, according to our previous reports. The assay was made in the presence of various concentrations of samples. The used protocol is based on the report of Brand-Williams et al..

[2] = ABTS˙+ radical scavenging assay
Description: as §1, §2

[3] = test system: LNCaP (prostate carcinoma) cells; assay: Cytotoxicity, Alamar blue assay, LNCaP cells; format: cell-based; conditions: Homo sapiens, 24 h exposure
Description: (§3) Normal human foreskin (BJ) fibroblasts and two types of cancer cells, namely A549 (lung adenocarcinoma) and LNCaP (prostate carcinoma) purchased from American Type Culture Collection (Manassas, VA, USA), were used in the experiments. Each cell line was maintained in a different culture medium, depending on the metabolic necessities of the cells. BJ cells were maintained in Dulbecco’s modified Eagle’s medium (DMEM) with low glucose. A549 cells were maintained in DMEM with high glucose […], while LNCaP cells were grown in Roswell Park Memorial Institute (RPMI) 1640 medium with high glucose (5 g/L). All media used were supplemented with 10% fetal bovine serum (FBS) and were refreshed every two days. Cells were used in experiments or subcultured when they reached 70–80% confluence.
(§4) In 100 µL in 96-well plates, a number of 30,000 LNCaP cells, 15,000 A549 cells, and 7500 normal (BJ) cells were seeded. Because the cells have different sizes and volumes, the purpose of the different seedings was to achieve a confluency of 70–80% after 24 h. All types of cells were further exposed to the synthesized compounds (5a–d and 6a–d) for 24 h, at a concentration ranging from 12.5 to 100 µg/mL. Post-exposure, the media were removed, and the cells were washed with phosphate buffer saline (PBS). Their viability was evaluated using Alamar blue (AB) assay as previously described. Briefly, the cells were incubated with a 200 µM resazurin solution for 4 h. Using a Synergy 2 multi-mode microplate reader, we measured the fluorescence. The measurement was performed at λexcitation = 530/25 nm; λemission = 590/35 nm. We conducted the experiments using three biological replicates, each one including 6 technical replicates. As negative controls (NC), cells exposed to culture medium containing 0.2% DMSO were used. Compared to the NC (100%), the results were expressed as relative values. We used IC50 values for the potency evaluation, and calculated them for each cell line, using the dose-effect curves obtained by fitting the experimental data with a 4-parameter logistic curve.
(§5) Mean values ± standard deviation (SD) values of at least three biological replicates were used to calculate experimental data. One-way analysis of variance (ANOVA) with a post hoc Holm–Sidak test was used to statistically examine the data. Using SigmaPlot 11.0 software (Systat, Software Inc., Chicago, IL, USA), we performed the graphical display and data analysis. From a statistical point of view, the results were considered different, at values of p < 0.05.

[4] = test system: A549 (lung adenocarcinoma) cells; assay: Cytotoxicity, Alamar blue assay, A549 cells; format: cell-based; conditions: Homo sapiens, 24 h exposure
Description: as §3, §4, §5

[5] = test system: normal human foreskin fibroblasts (BJ); assay: Cytotoxicity, Alamar blue assay, BJ cells; format: cell-based; conditions: Homo sapiens, Fibroblast; 24 h exposure, Alamar blue
Description: as §3, §4, §5

[6] = Fe^2+ chelation assay (ferrozine competition)
Description: In the protocol used for evaluating the Fe^2+ chelating ability of the compounds, the absorbances of the solutions were determined at λ = 562 nm, against a blank sample. The method was adapted from the initial report of Benzie and Strain et al., which was previously reported by our group. Using Equation (5), we calculated the iron chelation capacities of the 5a–d and 6a–d compounds:(5) iron chelation (%)=control absorbance−sample absorbance/control absorbance×100
The chelating capacity of the tested compounds of Fe^2+ was evaluated based on their competition for Fe^2+ with ferrozine.

[7] = Cu^2+ chelation assay (murexide competition)
Description: With murexide as a chromophoric chelator, we performed the protocol followed for the evaluation of Cu^2+ chelating activities of the compounds using an adaptation of the method presented by Cesari et al. and Wu et al.. Using Equation (6), we calculated the copper chelation capacities of the 5a–d and 6a–d compounds:(6) copper chelation (%)=(A485/A520)control−(A485/A520)sample/(A485/A520)control×100
The evaluation of the Cu^2+ chelation activity of compounds was made based on the competition for Cu^2+ with murexide. The chelating activity of compounds for the cupric ions found in the current assay is significant for the pyrogallol derivatives, being quite close to EDTA-Na2.

[8] = NO˙ radical scavenging assay (Griess reaction); conditions: PBS pH 7.4, sodium nitroprusside
Description: The scavenging of the NO˙ radical was performed by applying previously reported protocols. The in vitro protocol describes the decomposition of sodium nitroprusside in phosphate buffered saline (PBS) at pH = 7.4. The NO˙ radicals would be involved in a Griess reaction if they were not captured by the tested compounds. This reaction results from the formation of an azo dye, with maximum absorption at 546 nm. This azo dye is formed from sulfanilic acid and naphthyl ethylenediamine dichloride.

Row | IC50 [1] | IC50 (DPPH˙ scavenging) [1] | IC50 [2] | Compound | % of DPPH˙ Scavenging ([1]; 1.25 µg/mL) | % of DPPH˙ Scavenging ([1]; 2.5 µg/mL) | % of DPPH˙ Scavenging ([1]; 3.75 µg/mL) | % of DPPH˙ Scavenging ([1]; 5 µg/mL) | % of DPPH˙ Scavenging ([1]; 7.5 µg/mL) | % of DPPH˙ Scavenging ([1]; 10 µg/mL) | % of DPPH˙ Scavenging ([1]; 12.5 µg/mL) | % of DPPH˙ Scavenging ([1]; 15 µg/mL) | % of ABTS˙^+ Scavenging ([2]; 0.83 µg/mL) | % of ABTS˙^+ Scavenging ([2]; 1.67 µg/mL) | % of ABTS˙^+ Scavenging ([2]; 3.33 µg/mL) | % of ABTS˙^+ Scavenging ([2]; 4.99 µg/mL) | % of ABTS˙^+ Scavenging ([2]; 6.66 µg/mL) | % of ABTS˙^+ Scavenging ([2]; 9.99 µg/mL) | % of ABTS˙^+ Scavenging ([2]; 13.32 µg/mL) | also measured
1 | 18.7 µM | 4.68 µg/mL (≈ 18.7 µM) | 18.6 µM | Cc1c(C)c2c(c(C)c1O)CCC(C)(C(=O)O)O2 (stereo not shown) [Trolox, reference compound] | 17.01% | 28.53% | 40.42% | 53.87% | 75.85% | 94.85% | + (+ represents more than 95%) | + (+ represents more than 95%) | 38.66% | 53.16% | 66.54% | 94.57% | + (+ represents more than 95%) | + (+ represents more than 95%) | + (+ represents more than 95%) | 
2 |  |  |  | COc1cccc2c1C(=O)c1c(O)c3c(c(O)c1C2=O)C[C@@](O)(C(=O)CO)C[C@@H]3O[C@H]1C[C@H](N)[C@H](O)[C@H](C)O1 [Doxorubicin, reference compound] |  |  |  |  |  |  |  |  |  |  |  |  |  |  |  | IC50 [3]: 0.74 µg/mL; IC50 [4]: 0.54 µg/mL; IC50 [5]: > 7.5 µg/mL
3 |  |  |  | O=C([O-])CN(CCN(CC(=O)[O-])CC(=O)O)CC(=O)O.[Na+].[Na+] [EDTA-Na2, reference compound] |  |  |  |  |  |  |  |  |  |  |  |  |  |  |  | Ferrous ions Chelation Capacity (%) ([6]; 17.70 µg/mL): 1.32%; Ferrous ions Chelation Capacity (%) ([6]; 20.59 µg/mL): 20.59%; Ferrous ions Chelation Capacity (%) ([6]; 29.41 µg/mL): 42.89%; Ferrous ions Chelation Capacity (%) ([6]; 44.11 µg/mL): 95.10%; Ferrous ions Chelation Capacity (%) ([6]; 58.82 µg/mL): + (+ represents more than 95%); Ferrous ions Chelation Capacity (%) ([6]; 88.23 µg/mL): + (+ represents more than 95%); Ferrous ions Chelation Capacity (%) ([6]; 117.64 µg/mL): + (+ represents more than 95%); Ferrous ions Chelation Capacity (%) ([6]; 257.46 µg/mL): + (+ represents more than 95%); Ferrous ions Chelation Capacity (%) ([6]; 343.28 µg/mL): + (+ represents more than 95%); Cupric ions Chelation Capacity (%) ([7]; 3.36 µg/mL): 10.39%; Cupric ions Chelation Capacity (%) ([7]; 8.40 µg/mL): 22.68%; Cupric ions Chelation Capacity (%) ([7]; 16.80 µg/mL): 44.51%
4 |  |  |  | O=C(O)c1cc(O)ccc1O [Gentisic acid, reference compound] |  |  |  |  |  |  |  |  |  |  |  |  |  |  |  | % of NO˙ Scavenged [8]: 48.14%
5 | 16.1 µM | 2.83 µg/mL (≈ 16.1 µM) | 11.4 µM | O=C1O[C@H]([C@@H](O)CO)C(O)=C1O [Ascorbic acid, reference compound] | 35.11% | 47.45% | 55.71% | 64.21% | 79.16% | 94.39% | + (+ represents more than 95%) | + (+ represents more than 95%) | 60.97% | 73.24% | 87.73% | + (+ represents more than 95%) | + (+ represents more than 95%) | + (+ represents more than 95%) | + (+ represents more than 95%) | 
